Test results taken from PubChem BioAssay (NCI).
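In this assay, cells in 96-well plates receive the compound at five concentrations for 48 hours. Endpoints are linearly interpolated between the surrounding concentrations. At the GI50, growth is halved. TGI marks complete inhibition of growth.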

Legend:
Experiment in all cases: DTP human tumour cell line panel, 48 h
BT-549 breast = test system: BT-549 breast
HCT-15 colon = test system: HCT-15 colon
KM12 colon = test system: KM12 colon
LOX IMVI melanoma = test system: LOX IMVI melanoma
M14 melanoma = test system: M14 melanoma
OVCAR-5 ovarian = test system: OVCAR-5 ovarian
RXF 393 renal = test system: RXF 393 renal
UO-31 renal = test system: UO-31 renal
HL-60(TB) leukemia = test system: HL-60(TB) leukemia
MOLT-4 leukemia = test system: MOLT-4 leukemia

| SMILES | TGI (BT-549 breast) | TGI (HCT-15 colon) | TGI (KM12 colon) | TGI (LOX IMVI melanoma) | TGI (M14 melanoma) | TGI (OVCAR-5 ovarian) | TGI (RXF 393 renal) | TGI (UO-31 renal) | TGI (HL-60(TB) leukemia) | GI50 (KM12 colon) | TGI (MOLT-4 leukemia) | GI50 (BT-549 breast) | GI50 (HCT-15 colon) | GI50 (HL-60(TB) leukemia) | GI50 (LOX IMVI melanoma) | GI50 (M14 melanoma) | GI50 (MOLT-4 leukemia) | GI50 (OVCAR-5 ovarian) | GI50 (UO-31 renal) |
| --- | --- | --- | --- | --- | --- | --- | --- | --- | --- | --- | --- | --- | --- | --- | --- | --- | --- | --- | --- |
| CN(C)CCCSc1nc2ccccc2[nH]1 | > 100 µM | > 100 µM | > 100 µM | > 100 µM | > 100 µM | > 100 µM | > 100 µM | > 100 µM |  |  |  |  |  |  |  |  |  |  |  |
| CCOC(=O)c1cnc2oc3ccc(O)cc3c2c1C |  | > 100 µM | > 100 µM | > 100 µM | > 100 µM | > 100 µM | > 100 µM |  | > 100 µM | 70.3 µM | > 100 µM |  |  |  |  |  |  |  |  |
| COc1ccc2[nH]cc(CCNC(=O)[C@H](Cc3ccccc3)NC(=O)[C@@H](NCC(F)(F)F)C(C)C)c2c1 | 42.5 µM | 42.2 µM | 49.7 µM | 37.6 µM | 34.1 µM | 34.8 µM | 36.1 µM | 68.3 µM | 46.2 µM |  | 69.5 µM |  |  |  |  |  |  |  |  |
| CCCCCCCCCCCCCCCCCCOc1ccccc1CC(=O)OCC[N+]1(C)CCCCC1 | 7.1 µM | 27.7 µM |  | 3.18 µM | 6.58 µM | 7.49 µM |  | 19.7 µM | 4.36 µM |  | 3.89 µM | 2.65 µM | 4.65 µM | 1.92 µM | 1.75 µM | 2.52 µM | 1.73 µM | 2.32 µM | 4.14 µM |
| CN(CCCCCl)P(=O)(OCc1ccc([N+](=O)[O-])o1)OC[C@H]1O[C@@H](n2cc(F)c(=O)[nH]c2=O)C[C@@H]1O (stereo not given in full) | 49.1 µM | > 100 µM | 28.7 µM | 12.9 µM | 20 µM | > 100 µM | 17.4 µM | > 100 µM | > 23.6 µM |  | > 46.1 µM |  |  |  |  |  |  |  |  |
| CN1CCOC(c2ccc(Cl)cc2)O1 (stereo not given) | > 100 µM | > 100 µM | > 100 µM |  | > 100 µM | > 100 µM | > 100 µM | > 100 µM |  |  | > 100 µM |  |  |  |  |  |  |  |  |
| CC(CCN)(CCN)[N+](=O)[O-] | > 100 µM | > 100 µM | > 100 µM | > 100 µM | > 100 µM | > 100 µM | > 100 µM | > 100 µM | > 100 µM |  | > 100 µM |  |  |  |  |  |  |  |  |
| COc1cc2c(c(O)c1OC)-c1c(cc(OC)c(OC)c1OC)CC(C)C(C)C2 (stereo not given) | > 100 µM | > 100 µM | > 100 µM | > 100 µM | > 100 µM | > 100 µM | > 100 µM | > 100 µM | 55.2 µM |  | 43.4 µM |  |  |  |  |  |  |  |  |
| C1=NCCN2CCN(CCN=Cc3ccc(cc3)OCc3cccc(n3)COc3ccc1cc3)CC2 | > 50 µM | > 50 µM | > 50 µM |  | > 50 µM | > 50 µM | > 50 µM | > 50 µM | > 50 µM |  | > 50 µM |  |  |  |  |  |  |  |  |
| C=C1c2ccccc2C(=O)c2c1c1c(C(=O)OC)c(O)ccc1n2Cc1ccccc1 | 1.69 µM | 1.2 µM | 1.7 µM | 0.628 µM | 1.03 µM | 2.44 µM | 0.976 µM | 1.74 µM | 0.857 µM |  | 0.971 µM |  |  |  |  |  |  |  |  |
| O=C(O)c1cc([N+](=O)[O-])cc2c(=O)c3cnccc3[nH]c12 | > 100 µM | > 100 µM | > 100 µM |  | > 100 µM | > 100 µM | > 100 µM | > 100 µM | > 100 µM |  | > 100 µM |  |  |  |  |  |  |  |  |
| COC1=C(OC)C(=O)C(Cc2c(Cl)nc3sc(C)cn23)=C(C)C1=O | 34.2 µM | 67.9 µM | 27.8 µM | 34.1 µM | 34.5 µM | 35.9 µM | 41.7 µM | 42.9 µM |  |  | 4.21 µM |  |  |  |  |  |  |  |  |
| O=C([O-])C[n+]1ccccc1 | > 100 µM | > 100 µM | > 100 µM | > 100 µM | > 100 µM | > 100 µM | > 100 µM | > 100 µM | > 100 µM |  | > 100 µM |  |  |  |  |  |  |  |  |
| Cn1c2ccccc2n2c(N=O)c(-c3ccccc3)nc12 | 96.6 µM | > 100 µM | 69.8 µM | > 100 µM | 62.2 µM | > 100 µM | > 100 µM | > 100 µM | > 100 µM |  | > 100 µM |  |  |  |  |  |  |  |  |
| Nc1ncnc2c1ncn2C=C=CCO | > 100 µM | > 100 µM | > 100 µM | > 100 µM | > 100 µM | > 100 µM | > 100 µM | > 100 µM |  |  | > 100 µM |  |  |  |  |  |  |  |  |
| C[C@]12C=CC(=O)C=C1CC[C@@H]1[C@@H]2CC[C@]2(C)OC(=O)CC[C@@H]12 | > 500 µM | > 500 µM | > 500 µM | > 500 µM | > 500 µM | > 500 µM | > 485 µM | > 500 µM | 476 µM |  | > 500 µM |  |  |  |  |  |  |  |  |
| Cc1ccc(S(=O)(=O)n2cc(-c3cc(C(F)(F)F)ccn3)c3cc(Br)ccc32)cc1 |  | > 100 µM | > 100 µM | 92.2 µM | > 100 µM | > 100 µM | 45.1 µM | 24.7 µM | > 100 µM |  | > 100 µM |  |  |  |  |  |  |  |  |
| CN1CCc2[nH]c3ccccc3c2C1 |  | > 100 µM | > 100 µM | > 100 µM |  | > 100 µM | > 100 µM | > 100 µM | > 100 µM |  | > 100 µM |  |  |  |  |  |  |  |  |
| CCOc1ccc(NC(=O)C(=O)CC(=O)c2sc(NNC(C)=O)nc2C)cc1 |  | > 100 µM | > 100 µM | > 100 µM | > 100 µM | > 100 µM | > 100 µM | > 100 µM | > 100 µM |  | > 100 µM |  |  |  |  |  |  |  |  |
| O=C(Nc1ccc(Cl)cc1)c1cc2cc(N=Nc3ccccc3Cl)ccc2oc1=O |  | 24.1 µM |  |  | 55 µM | 91.3 µM | > 100 µM | 39.3 µM | 10.3 µM |  | 10.1 µM |  |  |  |  |  |  |  |  |
